# ChEMBL document CHEMBL1147511 (Bioorg Med Chem Lett, 2004)
# Experiments:
# Format in all cases: protein-complex assay
# [1] = target: Neuronal acetylcholine receptor; alpha3/beta2 (Rattus norvegicus, UniProt P04757+P12390); experiment: Binding affinity towards Nicotinic acetylcholine receptor alpha3-beta2 using [3H]epibatidine
# [2] = target: Neuronal acetylcholine receptor; alpha2/beta2 (Rattus norvegicus, UniProt P12389+P12390); experiment: Binding affinity towards nicotinic acetylcholine receptor alpha2-beta2 using [3H]epibatidine
# Neuronal acetylcholine receptor; alpha2/beta2, sequence (P12389 whole entry): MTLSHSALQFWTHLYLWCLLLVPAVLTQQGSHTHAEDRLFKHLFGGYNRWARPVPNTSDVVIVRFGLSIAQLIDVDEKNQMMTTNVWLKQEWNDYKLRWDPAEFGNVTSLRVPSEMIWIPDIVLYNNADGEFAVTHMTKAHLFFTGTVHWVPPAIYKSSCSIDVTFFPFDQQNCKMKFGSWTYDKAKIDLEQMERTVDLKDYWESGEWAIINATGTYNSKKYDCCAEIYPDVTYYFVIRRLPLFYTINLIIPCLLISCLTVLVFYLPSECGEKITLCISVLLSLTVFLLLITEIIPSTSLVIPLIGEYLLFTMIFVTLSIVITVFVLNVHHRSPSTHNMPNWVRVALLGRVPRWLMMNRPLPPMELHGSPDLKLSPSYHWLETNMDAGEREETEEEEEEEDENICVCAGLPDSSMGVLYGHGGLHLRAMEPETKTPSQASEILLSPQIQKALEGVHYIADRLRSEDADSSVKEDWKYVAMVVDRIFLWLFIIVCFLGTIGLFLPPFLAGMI
# Neuronal acetylcholine receptor; alpha2/beta2, sequence (P12390 whole entry): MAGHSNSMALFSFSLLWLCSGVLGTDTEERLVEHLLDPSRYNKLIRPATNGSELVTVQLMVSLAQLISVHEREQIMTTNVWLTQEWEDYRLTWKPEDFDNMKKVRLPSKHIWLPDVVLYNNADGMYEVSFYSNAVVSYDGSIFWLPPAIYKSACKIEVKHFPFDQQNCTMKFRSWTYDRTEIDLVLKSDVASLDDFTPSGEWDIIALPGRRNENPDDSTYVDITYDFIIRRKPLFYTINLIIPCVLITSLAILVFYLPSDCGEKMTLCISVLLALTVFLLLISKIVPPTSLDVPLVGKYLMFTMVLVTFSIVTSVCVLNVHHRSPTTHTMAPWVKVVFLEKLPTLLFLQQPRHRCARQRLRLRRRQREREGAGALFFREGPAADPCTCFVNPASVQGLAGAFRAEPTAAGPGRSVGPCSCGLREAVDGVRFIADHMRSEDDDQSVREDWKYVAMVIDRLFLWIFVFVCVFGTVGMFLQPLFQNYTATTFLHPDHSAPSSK
# [3] = target: Neuronal acetylcholine receptor; alpha4/beta2 (Rattus norvegicus, UniProt P09483+P12390); experiment: Binding affinity towards Nicotinic acetylcholine receptor alpha4-beta2 using [3H]epibatidine
# Neuronal acetylcholine receptor; alpha4/beta2, sequence (P09483 whole entry): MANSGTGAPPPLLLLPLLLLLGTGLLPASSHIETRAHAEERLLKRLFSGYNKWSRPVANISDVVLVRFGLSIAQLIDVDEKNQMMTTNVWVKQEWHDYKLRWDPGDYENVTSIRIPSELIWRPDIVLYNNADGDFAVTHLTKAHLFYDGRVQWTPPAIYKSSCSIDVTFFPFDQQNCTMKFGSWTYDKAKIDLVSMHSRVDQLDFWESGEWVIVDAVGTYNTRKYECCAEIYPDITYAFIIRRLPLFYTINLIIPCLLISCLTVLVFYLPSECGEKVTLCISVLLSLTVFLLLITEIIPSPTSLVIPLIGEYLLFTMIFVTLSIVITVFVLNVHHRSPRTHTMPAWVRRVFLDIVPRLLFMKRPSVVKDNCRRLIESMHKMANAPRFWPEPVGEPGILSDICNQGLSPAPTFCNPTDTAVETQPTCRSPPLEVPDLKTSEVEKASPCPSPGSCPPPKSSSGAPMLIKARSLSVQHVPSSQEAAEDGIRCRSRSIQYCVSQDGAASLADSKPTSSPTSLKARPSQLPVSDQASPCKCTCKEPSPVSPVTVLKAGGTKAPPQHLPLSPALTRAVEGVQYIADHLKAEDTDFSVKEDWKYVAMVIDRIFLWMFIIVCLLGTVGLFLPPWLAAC
# Neuronal acetylcholine receptor; alpha4/beta2, sequence (P12390 whole entry): as the sequence (P12390 whole entry) above
# [4] = target: Neuronal acetylcholine receptor; alpha4/beta4 (Rattus norvegicus, UniProt P09483+P12392); experiment: Binding affinity towards Nicotinic acetylcholine receptor alpha4-beta4 using [3H]epibatidine
# Neuronal acetylcholine receptor; alpha4/beta4, sequence (P09483 whole entry): as the sequence (P09483 whole entry) above
# Neuronal acetylcholine receptor; alpha4/beta4, sequence (P12392 whole entry): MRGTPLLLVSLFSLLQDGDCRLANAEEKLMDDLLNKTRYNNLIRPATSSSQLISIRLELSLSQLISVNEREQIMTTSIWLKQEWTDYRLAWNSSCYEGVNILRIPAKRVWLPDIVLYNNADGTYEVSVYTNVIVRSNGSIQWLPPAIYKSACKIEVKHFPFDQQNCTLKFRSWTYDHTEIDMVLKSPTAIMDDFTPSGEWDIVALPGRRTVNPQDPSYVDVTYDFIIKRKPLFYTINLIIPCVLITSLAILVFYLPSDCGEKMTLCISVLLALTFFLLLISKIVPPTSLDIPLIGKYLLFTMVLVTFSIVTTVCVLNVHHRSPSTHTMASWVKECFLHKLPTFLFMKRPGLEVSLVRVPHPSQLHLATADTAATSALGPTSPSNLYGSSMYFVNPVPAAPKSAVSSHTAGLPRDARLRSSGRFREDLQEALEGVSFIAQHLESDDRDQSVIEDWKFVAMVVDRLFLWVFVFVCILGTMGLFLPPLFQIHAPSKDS
# [5] = target: T1, Neuronal acetylcholine receptor; alpha3/beta4 (Rattus norvegicus, UniProt P04757+P12392); experiment: Binding affinity towards Nicotinic acetylcholine receptor alpha3-beta4
# T1 sequence (P04757 whole entry): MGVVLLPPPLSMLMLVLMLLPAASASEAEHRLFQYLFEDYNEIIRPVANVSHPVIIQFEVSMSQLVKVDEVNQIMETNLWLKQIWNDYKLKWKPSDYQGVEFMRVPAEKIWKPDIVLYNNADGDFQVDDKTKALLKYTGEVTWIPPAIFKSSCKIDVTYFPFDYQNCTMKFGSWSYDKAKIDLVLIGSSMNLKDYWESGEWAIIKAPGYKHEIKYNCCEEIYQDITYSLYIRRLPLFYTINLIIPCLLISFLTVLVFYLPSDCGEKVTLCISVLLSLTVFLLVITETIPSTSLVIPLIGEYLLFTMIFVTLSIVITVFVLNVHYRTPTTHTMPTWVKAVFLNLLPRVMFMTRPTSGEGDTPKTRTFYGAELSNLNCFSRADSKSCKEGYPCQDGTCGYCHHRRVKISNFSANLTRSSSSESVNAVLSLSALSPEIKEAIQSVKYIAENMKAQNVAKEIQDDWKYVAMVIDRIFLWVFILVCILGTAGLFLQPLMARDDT
# T1 sequence (P12392 whole entry): as the sequence (P12392 whole entry) above
# [6] = target: Neuronal acetylcholine receptor; alpha2/beta4 (Rattus norvegicus, UniProt P12389+P12392); experiment: Binding affinity towards Nicotinic acetylcholine receptor alpha2-beta4 using [3H]epibatidine
# Neuronal acetylcholine receptor; alpha2/beta4, sequence (P12389 whole entry): as the sequence (P12389 whole entry) above
# Neuronal acetylcholine receptor; alpha2/beta4, sequence (P12392 whole entry): as the sequence (P12392 whole entry) above
# [7] = target: T1, Neuronal acetylcholine receptor; alpha3/beta4; experiment: Binding affinity towards Nicotinic acetylcholine receptor alpha3-beta4 using [3H]epibatidine
# Neuronal acetylcholine receptor; alpha3/beta2, sequence (P04757 whole entry): as the sequence (P04757 whole entry) above
# Neuronal acetylcholine receptor; alpha3/beta2, sequence (P12390 whole entry): as the sequence (P12390 whole entry) above
Structure (SMILES),Ki [1],Ki [2],Ki [3],Ki [4],Ki [5],Ki [6],Ki [7]
Clc1ccc(C2CC3CCC2N3CCN2C3CCC2C(c2ccc(Cl)nc2)C3)cn1 (centres undefined),5.44 nM,2.08 nM,9.33 nM,27.7 nM,47.8 nM,26.8 nM,
Clc1ccc(C2CC3CCC2N3CCCCCCN2C3CCC2C(c2ccc(Cl)nc2)C3)cn1 (centres undefined),6.19 nM,3.13 nM,9.05 nM,40.4 nM,,47.8 nM,82.2 nM
Clc1ccc(C2CC3CCC2N3CCCN2C3CCC2C(c2ccc(Cl)nc2)C3)cn1 (centres undefined),8.99 nM,5.53 nM,15.7 nM,54.2 nM,,57.3 nM,112 nM
Clc1ccc(C2CC3CCC2N3CCCCCCCCCCN2C3CCC2C(c2ccc(Cl)nc2)C3)cn1 (centres undefined),12.6 nM,7.51 nM,21.6 nM,61.3 nM,,71.7 nM,138 nM
